Reference: PMC12931155, “Colorectal Cancer Cell's Weapon: RNF32 Engages SPP1^+ Macrophages to Foster Liver Metastasis, Targeted by Indole‐3‐Acetic Acid” (Advanced Science, 2025)
pKd: −log10 of the molar value.

Target: T1, RNF32 (GFP-RNF32) (Homo sapiens, UniProt Q9H0A6)
T1 construct: GFP-RNF32 fusion from plasmid, expressed in HCT116 cells, diluted cell lysate (not purified)
Assay: microscale thermophoresis, GFP-RNF32 in HCT116 lysate
Format: biochemical

T1 sequence (Q9H0A6 whole entry, the tested form may be a part): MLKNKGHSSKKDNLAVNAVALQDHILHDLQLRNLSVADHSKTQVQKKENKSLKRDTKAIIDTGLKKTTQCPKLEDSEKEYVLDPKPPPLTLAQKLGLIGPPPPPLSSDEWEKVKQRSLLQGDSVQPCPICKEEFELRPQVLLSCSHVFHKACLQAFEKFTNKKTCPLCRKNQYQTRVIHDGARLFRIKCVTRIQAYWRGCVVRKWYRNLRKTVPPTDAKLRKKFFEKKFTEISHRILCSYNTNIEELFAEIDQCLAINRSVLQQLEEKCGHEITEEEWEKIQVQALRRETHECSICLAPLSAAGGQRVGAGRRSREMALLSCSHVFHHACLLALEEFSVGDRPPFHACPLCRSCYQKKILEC

O=C(O)Cc1c[nH]c2ccccc12 [indole‐3‐acetic acid]
pKd: 4.38
